Experimental data: patent publication US9085795B2, “Methods for screening candidate agents for modulating prorenin and renin, assays for detecting prorenin and antibodies” (MOLECULAR INNOVATIONS, INC., priority 2009, dated 2015)
Values joined by “and” are separate entries in the source; they are usually repeats but may differ in a detail not shown here. Equal values may be shown once. Read-outs that look alike come from different tables or passages of the source. No end group written: not given here. *: point of attachment. Biotin = O=C1N[C@H]2[C@H](CS[C@H]2CCCCC(=O)*)N1

Columns and labels:
renin = target: T1, renin (Homo sapiens, UniProt P00797); test: Renin activity assay: cleavage of biotin-[…] by renin, detected with the antibody of the invention on avidin-coated plate; format: biochemical; details: Renin at 10 ug/ml, aliskiren at 10X excess molar conc.
T1 construct: Renin is produced by cleavage of the 395 amino acid zymogen prorenin
T1 sequence (P00797 67-406): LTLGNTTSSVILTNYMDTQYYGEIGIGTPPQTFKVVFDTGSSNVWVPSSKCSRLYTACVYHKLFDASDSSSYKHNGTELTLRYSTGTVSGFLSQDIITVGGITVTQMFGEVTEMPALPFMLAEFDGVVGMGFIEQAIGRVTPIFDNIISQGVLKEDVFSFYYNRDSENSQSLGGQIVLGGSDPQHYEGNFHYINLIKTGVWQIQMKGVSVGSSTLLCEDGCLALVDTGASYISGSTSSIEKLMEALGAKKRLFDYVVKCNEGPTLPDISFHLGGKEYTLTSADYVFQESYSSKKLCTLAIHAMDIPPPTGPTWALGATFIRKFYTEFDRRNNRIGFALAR
Procedure: In accordance with the invention, renin was preincubated in the presence and absence of aliskiren, a known renin inhibitor for approximately 2 hours at 37° C. in 50 mM HEPES, 2 mM EDTA, 1% DMA, 0.5% BSA, pH 7.0. This mixture of renin +/−aliskiren was then contacted with biotin-[…] and incubated at 37° C. for approximately eighteen hours. The reaction mixture was then added to an avidin-coated microtiter plate and allowed to adhere thereto for 30 minutes at room temperature and then washed three times with wash buffer, containing 10 mM Tris, 150 mM NaCl, 0.1% BSA and 0.05% Tween. Then 100 μl of the antibody of the invention was added to each well of the microtiter plate and incubated for 30 minutes at room temperature and again washed with wash buffer. Then 100 μl of horse radish peroxidase conjugated goat anti-mouse subclass Fc was added to each well, incubated for 30 minutes at room temperature and washed with wash buffer. Then 100 μl of TMB ONE Solution™, available from Promega Corporation of Madison, Wis., was added to all wells, incubated for five minutes at room temperature. The reaction was stopped with 50 μl 1N H2SO4 and read at 450 nm.

[1] = tested on: monoclonal antibody 4B5-E3; details: peptides bound to avidin coated plates at 1 μg/ml, absorbance at 450 nm
Procedure: Cell supernatants were loaded on an IMMULON™ (Thermo Fisher Scientific Inc., Waltham, Mass.) strip plate coated with prorenin and blocked. […] Strips were then washed three times, and developed with TMB 1 (Kirkegaard & Perry Laboratories, Inc., Gaithersburg, Md.) substrate for 5 minutes; solution was quenched with 1N H2SO4. The IMMULON™ plate was read on a microtiter plate spectrophotometer with a set absorbance at 450 nm. Optical density (OD) measurements higher than 3.0 were considered positive clones.
These four peptides were bound to avidin coated plates at a concentration of 1 μg/ml and purified monoclonal 4B5-E3 binding was determined per the screening procedure described earlier.

## COCCCOc1cc(C[C@@H](C[C@H](N)[C@@H](O)C[C@H](C(=O)NCC(C)(C)C(N)=O)C(C)C)C(C)C)ccc1OC [aliskiren]
renin
  inhibition of cleavage of the substrate peptide by renin: inhibition of cleavage of the substrate peptide by renin
renin; preincubated approximately 2 hours at 37° C., substrate approximately eighteen hours
  signal read at 450 nM (uncleaved substrate peptide), renin + inhibitor: 3.363 and 3.481 and 3.596 and 3.824 and 3.754 and 3.497

## Biotin-ARLGPEW [Peptide 4.6]
[1]
  binding of peptide to monoclonal antibody 4B5-E3: does not bind monoclonal

## Biotin-ARLGPEWS [Peptide 4.5]
[1]
  binding of peptide to monoclonal antibody 4B5-E3: binds monoclonal
[1]; listed as ARLGPEWS
  binding of peptide to monoclonal antibody 4B5-E3: bound to the monoclonal antibody

## Biotin-ARLGPEWSQ [Peptide 4.4]
[1]
  binding of peptide to monoclonal antibody 4B5-E3: binds monoclonal
[1]; listed as ARLGPEWSQ
  binding of peptide to monoclonal antibody 4B5-E3: bound to the monoclonal antibody

## Biotin-ARLGPEWSQPMKR [Peptide 4.1]
[1]
  binding of peptide to monoclonal antibody 4B5-E3: Biotin-ARLGPEWSQPMKR (binds monoclonal)

## Biotin-GVDMARLGPEWSQPMKR [Peptide 4]
[1]
  binding of peptide to monoclonal antibody 4B5-E3: Biotin-GVDMARLGPEWSQPMKR (binds monoclonal)
[1]; listed as peptide 4
  binding of peptide to monoclonal antibody 4B5-E3: positive result

## Biotin-LGPEWSQPMKR [Peptide 4.3]
[1]
  binding of peptide to monoclonal antibody 4B5-E3: Biotin-LGPEWSQPMKR (does not bind monoclonal)

## Biotin-RLGPEWSQPMKR [Peptide 4.2]
[1]
  binding of peptide to monoclonal antibody 4B5-E3: Biotin-RLGPEWSQPMKR (binds monoclonal)
